The text below walks through data of patent US4978332A, “Treatments employing vasoconstrictive substances in combination with cytotoxic agents for introduction into cellular lesion areas” (priority 1987, dated 1990).

The test system of experiment [1] is RIF-1 murine fibrosarcoma.
Procedure: The transplantable experimental murine fibrosarcomas RIF-1 or KHT were grown intradermally (2×10^5 cells injected i.d.) in the flank of 5 month old male C3H mice. When tumors reached a volume of ~100 mm^3 they were used for the studies. […] Drug concentrations were: adriamycin, 3.75 mg/ml: BCNU, 10 mg/ml: vinblastine, 1.2 mg/ml; and 5-fluorouracil, 30 mg/ml. The drugs were administered intraperitoneally (i.p.) or intratumorally (i.t.) in an injection volume of 0.1 ml. The tumors of the treated mice as well as untreated control tumors were measured three times per week by vernier calipers and their volumes were calculated by the formula:
*This ratio indicated the time it would take a treated tumor to grow to
4× its initial size, divided by the time it would take an untreated
tumor to grow to 4× its initial size.
In a further experiment the test system is KHT murine fibrosarcoma. Put plainly: Tumor growth ratio (time to grow to 4x initial volume, treated/untreated), KHT fibrosarcoma in C3H mice. It is filed as in vivo, mouse (C3H). The procedure:
(§1) The transplantable experimental murine fibrosarcomas RIF-1 or KHT were grown intradermally (2×10^5 cells injected i.d.) in the flank of 5 month old male C3H mice. When tumors reached a volume of ~100 mm^3 they were used for the studies. The cytotoxic drugs under study (all were formulated for human clinical use) were made up just prior to use in their appropriate aqueous vehicle except those experimental groups in which epinephrine-HCl (1 mg/ml) was added to the aqueous drug (usually ~10% of total volume). Drug concentrations were: adriamycin, 3.75 mg/ml: BCNU, 10 mg/ml: vinblastine, 1.2 mg/ml; and 5-fluorouracil, 30 mg/ml. The drugs were administered intraperitoneally (i.p.) or intratumorally (i.t.) in an injection volume of 0.1 ml. The tumors of the treated mice as well as untreated control tumors were measured three times per week by vernier calipers and their volumes were calculated by the formula: […]
(§2) where D1 -D3 are tumor diameters in mm. The time (days) for the tumors to grow to four times their original experimental volume was used as a parameter of treatment effectiveness.

Experiment [2] relates to murine fibrosarcomas RIF-1 or KHT. The conditions noted are these: epinephrine 1 mg/kg alone. As for the experimental part:
as §1, §2

The mark [3] stands for this setting: 2 mg/kg BW i.t., Epi 1 mg/kg where combined.

Counter-ions that a name gives are not always drawn. Like-named read-outs stand apart in the source and are kept apart here.

For the molecule `O=c1[nH]cc(F)c(=O)[nH]1` [5-Fluorouracil, 5-fluorouracil], the “Tumor Growth Ratio” value in experiment [1] (100 mg/kg BW i.p.) is 1.20; in experiment [1] (100 mg/kg BW i.t., Epi 1 mg/kg where combined) it was 1.30.
With `COc1cccc2c1C(=O)c1c(O)c3c(c(O)c1C2=O)C[C@@](O)(C(=O)CO)C[C@@H]3O[C@H]1C[C@H](N)[C@H](O)[C@H](C)O1` [Adriamycin, doxorubicin hydrochloride], the “Tumor Growth Ratio” value in experiment [1] (15 mg/kg BW i.p.) came to 1.63; in experiment [1] (15 mg/kg BW i.t., Epi 1 mg/kg where combined), 3.04.
`O=NN(CCCl)C(=O)NCCCl` [BCNU (carmustine), carmustine]: the “Tumor Growth Ratio” value with KHT murine fibrosarcoma (40 mg/kg BW i.t., Epi 1 mg/kg where combined) is 2.08.
As for `CNC[C@H](O)c1ccc(O)c(O)c1` [Epinephrine, epinephrine], the “chemotherapeutic effect when used alone” value in experiment [2] was “not chemotherapeutic when used alone”.
On to `CC[C@]1(O)C[C@@H]2CN(CCc3c([nH]c4ccccc34)[C@@](C(=O)OC)(c3cc4c(cc3OC)N(C)[C@H]3[C@@](O)(C(=O)OC)[C@H](OC(C)=O)[C@]5(CC)C=CCN6CC[C@]43[C@@H]65)C2)C1` [Vinblastine, vinblastine sulfate], for which the “Tumor Growth Ratio” value in the experiment on KHT murine fibrosarcoma (2 mg/kg BW i.p.) is given as 1.16; in the experiment on KHT murine fibrosarcoma (setting [3]), 1.76; in experiment [1] (2 mg/kg BW i.p.), 1.12; in experiment [1] (setting [3]) it was 3.01.
